# Results: patent publication US20020010125A1, “Assay for agents that induce chemokinesis” (priority 2000, published 2002)
# “Also recorded” adds a separate entry of the source.
# Assays:
# [1] = test system: chronic lymphocytic leukemia cells; assay: Chemokinesis: migration of chronic lymphocytic leukemia cells through a membrane, no etodolac or chemokine in lower well; format: cell-based, human; conditions: overnight incubation at 200 μmol concentration, versus cells without etodolac; FIG. 1
# Procedure: Cell migration was measured in a 24-well modified Boyden chamber (Transwell, Corning-Costar, N.Y.). The recombinant human IP-10 chemokine (R&D Systems, McKinley Place, Nebr.) was diluted in RPMI-1640 medium at 200 ng/ml, and used to evaluate the chemotactic properties of lymphocytes from B-CLL patients. Polycarbonate membranes with pore size of 3 μm were used. A total of […] of chemokines or control medium was added to the bottom wells, and […] of 2 to 5.0×10^6 cells/ml cells resuspended in RPMI-1640 were added to the top wells. […] The membranes were then removed, and the cells present on the bottom well were quantified by flow cytometry. For cell quantification, a fixed acquisition time of 30 seconds was used per sample, and beads were run during each experiment to ensure a reproducible acquisition. All assays were performed in triplicate. B-Chronic lymphocytic leukemia (B-CLL) cells were pre-incubated in the presence of various concentrations of etodolac for 16 hours, prior to loading in the upper part of a modified Boyden chamber with pore size of 3 μm. The lower reservoir contained either medium alone, or the CXCR3-binding chemokine IFN-inducible protein 10 (IP-10, 200 ng/ml). After 2 hours of incubation, the cells that traveled through the polycarbonate membrane were enumerated by flow cytometry. […] Control cells were incubated in the same medium without etodolac. The cells were then added to the upper wells of chemotaxis chambers divided by a 5 to 8 micron membrane. No etodolac was present in the lower portion of each well. FIG. 1 provides a graph of the number of chronic lymphocytic leukemia cells crossing through the membranes into the lower well.
# [2] = test system: B-CLL cells; conditions: for chemotactic response of B-CLL cells to IP-10: overnight incubation at 12.5 μM to 500 μM, B-CLL patients n=4, FIG. 3
# [3] = test system: peripheral blood lymphocytes; assay: Chemokinesis: migration of peripheral blood lymphocytes through a membrane, no etodolac in lower well; format: cell-based, human; conditions: overnight incubation at 250 μM, versus cells without etodolac; FIG. 2
# Procedure: Cell migration was measured in a 24-well modified Boyden chamber (Transwell, Corning-Costar, N.Y.). The recombinant human IP-10 chemokine (R&D Systems, McKinley Place, Nebr.) was diluted in RPMI-1640 medium at 200 ng/ml, and used to evaluate the chemotactic properties of lymphocytes from B-CLL patients. Polycarbonate membranes with pore size of 3 μm were used. A total of […] of chemokines or control medium was added to the bottom wells, and […] of 2 to 5.0×10^6 cells/ml cells resuspended in RPMI-1640 were added to the top wells. […] The membranes were then removed, and the cells present on the bottom well were quantified by flow cytometry. For cell quantification, a fixed acquisition time of 30 seconds was used per sample, and beads were run during each experiment to ensure a reproducible acquisition. All assays were performed in triplicate. Peripheral blood lymphocytes were incubated overnight in medium containing a racemic mixture of etodolac, the R-enantiomer of etodolac or the S-enantiomer of etodolac at 250 μM concentration. Control cells were incubated in the same medium without etodolac. The cells were then added to the upper wells of chemotaxis chambers divided by a 5 to 8 micron membrane. No etodolac was present in the lower portion of each well. FIG. 2 provides a graph of the number of peripheral blood lymphocytes crossing through the membranes into the lower well.
# [4] = test system: peripheral blood lymphocytes; conditions: for number of peripheral blood lymphocytes migrating through the membrane to IP-10: overnight incubation at 0 μM to 500 μM, FIG. 4
# [5] = test system: circulating lymphocyte counts; assay: Clinical trial of etodolac in B-CLL patients: circulating lymphocyte counts, lymphadenopathy; format: in vivo, human
# Procedure: To determine if etodolac could reduce B-CLL survival in vivo, six B-CLL patients were enrolled in a first step challenge assay for etodolac sensitivity. Each patient received one 400 mg etodolac tablet, and a second tablet 12 hours later. B-CLL cells were isolated just before the first tablet, and 12 hours after the second. B-CLL cells recovered from patients were then cultured with 20% autologous plasma and apoptosis rates were measured, either before or after etodolac treatment. […] The five etodolac-sensitive patients were then enrolled in a second-step clinical trial in which they took etodolac for one month (400 mg bid).
# [6] = test system: B-CLL cells; assay: Ex vivo viability (erythrosin B) of B-CLL cells isolated from patients before and after etodolac challenge; format: in vivo, human; conditions: for % Increased cell death: after versus before etodolac
# Source text: Written informed consent was obtained to procure peripheral blood from all patients and with normal healthy volunteers. Patients had to have B-CLL according to National Cancer Institute (NCI) criteria of any Rai stage. Criteria for requiring therapy were as follows: disease-related symptoms, anemia and/or thrombocytopenia, bulky lymphadenopathy, and/or clinically relevant splenomegaly. Mononuclear cells were isolated by gradient centrifugation through Ficoll-Paque. […] At the indicated times, viability assays were performed by erythrosin B dye exclusion. To determine if etodolac could reduce B-CLL survival in vivo, six B-CLL patients were enrolled in a first step challenge assay for etodolac sensitivity. Each patient received one 400 mg etodolac tablet, and a second tablet 12 hours later. B-CLL cells were isolated just before the first tablet, and 12 hours after the second. B-CLL cells recovered from patients were then cultured with 20% autologous plasma and apoptosis rates were measured, either before or after etodolac treatment. […] The five etodolac-sensitive patients were then enrolled in a second-step clinical trial in which they took etodolac for one month (400 mg bid). […] After 72 hour of incubation, viability assays were performed by erythrosin B staining. Numbers indicate the % of viable cells.
# [7] = test system: peripheral blood leukocytes; assay: Peripheral blood leukocyte counts in normal mice after etodolac by gastric lavage; format: in vivo; conditions: blood at 4 hr, 24 hr, 158 hr and 14 days, FIG. 5
# Procedure: Normal mice were given 25 mg/kg etodolac or 100 mg/kg etodolac by gastric lavage. Control mice received no etodolac. Blood was drawn from each mouse at 4 hr, 24 hr, 158 hr and 14 days after etodolac administration and peripheral blood leukocyte counts were done.
# [8] = test system: Chronic lymphocytic leukemia (B-CLL) cells; assay: B-CLL colony morphology, aggregation and viability by light microscopy; format: cell-based, human; conditions: 24 hours
# Procedure: Chronic lymphocytic leukemia (B-CLL) cells were incubated for 24 hr in medium containing the R-enantiomer of etodolac at 0.0 μM, 100 μM and 250 μM. concentrations. The cell morphology was observed under light microscopy. Control cells incubated without etodolac grew in large, flat colonies (FIG. 6A). However, after incubation for 24 hours with either 100 μM or 250 μM.
# [9] = test system: Colon cancer cells (HCT-116); assay: Actin filament staining (phalloidin) and cell shape in colon cancer cells; format: cell-based; conditions: 500 μM, 5 hours; FIG. 7B
# Procedure: Colon cancer cells (HCT-116) were incubated for 5 hours with either no etodolac (control cells) or 500 μM. R-etodolac (test cells). The cells were then fixed and the intracellular actin filaments were stained with phalloidan conjugated to a fluorogenic dye (Alexa-green). The control cells (FIG. 7A) had actin filaments arranged in rigid structures (stress fibers) that confer the “stretched” shape often seen in normal cells.
compound,measurement,setting,value
CCc1cccc2c3c([nH]c12)[C@](CC)(CC(=O)O)OCC3 [S-etodolac],number of chronic lymphocytic leukemia cells crossing through the membranes into the lower well,[1],more cells migrated through the membrane
same,chemotactic response of B-CLL cells to IP-10,[2],enhanced B-CLL chemotaxis
same,number of peripheral blood lymphocytes crossing through the membranes into the lower well,[3],did not induce substantial chemokinesis
same,number of peripheral blood lymphocytes migrating through the membrane to IP-10,[4],less cell migration than did the racemic mixture
CCc1cccc2c3c([nH]c12)C(CC)(CC(=O)O)OCC3 (racemic) [etodolac],number of chronic lymphocytic leukemia cells crossing through the membranes into the lower well,[1],more cells migrated through the membrane
same,changes in lymphadenopathy,[5]; B-CLL patients on etodolac therapy,did not have clinically obvious changes in lymphadenopathy
same,B-CLL counts when etodolac treatment was interrupted,[5]; after one month of 400 mg bid,rebounded to pre-treatment levels
same,drop of circulating lymphocyte counts,"[5]; two retreated B-CLL patients, over one month, results not shown",~50%
same,% Increased cell death,[6]; patient #1,13%
same,% Increased cell death,[6]; patient #2,57%
same,% Increased cell death,[6]; patient #3,69%
same,% Increased cell death,[6]; patient #4,0%
same,% Increased cell death,[6]; patient #5,34%
same,% Increased cell death,[6]; patient #6,41%
same,patients whose cells displayed more ex vivo spontaneous apoptosis after in vivo etodolac challenge than before,"[6]; six B-CLL patients, two 400 mg tablets 12 hours apart",5 out of 6
same,number of peripheral blood leukocytes,[7]; 25 mg/kg by gastric lavage,reduced
same,number of peripheral blood leukocytes,[7]; 100 mg/kg by gastric lavage,reduced
same,"expression of the CXCR receptor, as assessed by antibody staining","[2]; B-CLL cells, data not shown",not due to increased expression of the CXCR receptor
same,"concentration at which chemotaxis of B-CLL cells decreased, due to a loss of cell viability","[2]; human, 16 h",≥ 500 µM
same,chemotactic response of B-CLL cells to IP-10,[2],increased the chemotactic response
same,number of peripheral blood lymphocytes crossing through the membranes into the lower well,[3],more cells migrated through the membrane
same,etodolac concentration up to which the number of migrating peripheral blood lymphocytes increased,[4]; IP-10 in lower well,100 µM
same,"concentration at which chemotaxis of peripheral blood lymphocytes decreased, due to a loss of cell viability",[4]; human,≥ 250 µM
same,number of peripheral blood lymphocytes migrating through the membrane to IP-10,[4],increased with etodolac concentration
CCc1cccc2c3c([nH]c12)[C@@](CC)(CC(=O)O)OCC3 [R-etodolac],number of chronic lymphocytic leukemia cells crossing through the membranes into the lower well,[1],more cells migrated through the membrane
same,chemotactic response of B-CLL cells to IP-10,[2],enhanced B-CLL chemotaxis
same,total number of B-CLL cells or their viability,[8]; 100 μM or 250 μM,No effect
same,B-CLL cell movement and colony morphology,"[8]; 100 μM, FIG. 6B","the cells migrated toward each other, the diameter of the colonies was reduced, and multiple layers of cells were present in the colonies"
same,B-CLL cell movement and colony morphology,"[8]; 250 μM, FIG. 6C","the cells migrated toward each other and the diameter of the colonies was reduced; also recorded: the cells migrated even more toward each other, the diameter of the colonies was even further reduced and even more layers of cells were present in the colonies"
same,number of peripheral blood lymphocytes crossing through the membranes into the lower well,[3],did not induce substantial chemokinesis
same,actin filaments and cell shape of HCT-116 cells,[9],no conventional stress fibers are observed and the cells assume a rounded shape
same,number of peripheral blood lymphocytes migrating through the membrane to IP-10,[4],less cell migration than did the racemic mixture
